Measurements taken from US10766884B2 (Pfizer Inc., priority 2018, dated 2020).

Experiments:
[1] = target: CDK4/Cyclin D1 (Homo sapiens (Human), UniProt P11802); assay: CDK4/Cyclin D1 mobility shift assay; format: biochemical; conditions: activated CDK4/Cyclin D1, 3.5 mM ATP, Morrison fit; read-out: CDK4D1 Ki
[2] = target: CDK4 (Homo sapiens (Human), UniProt P11802); assay: Phospho-Serine 795 Rb ELISA assay in JEKO-1 cells; format: cell-based; conditions: overnight treatment, phospho-Rb S795, read-out: CDK4 pRB S795 ELISA JEKO-1 cells IC50
Sequence of CDK4 (P11802 2-303): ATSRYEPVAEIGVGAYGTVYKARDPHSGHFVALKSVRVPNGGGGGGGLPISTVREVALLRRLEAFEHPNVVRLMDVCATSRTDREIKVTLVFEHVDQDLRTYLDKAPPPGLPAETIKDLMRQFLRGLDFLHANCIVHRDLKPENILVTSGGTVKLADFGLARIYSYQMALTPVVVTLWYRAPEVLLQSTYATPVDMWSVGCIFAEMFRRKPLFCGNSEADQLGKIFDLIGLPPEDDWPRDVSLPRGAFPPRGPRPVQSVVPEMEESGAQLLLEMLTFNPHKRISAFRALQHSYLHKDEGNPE
Sequence of CDK4 (P24385 whole entry partner): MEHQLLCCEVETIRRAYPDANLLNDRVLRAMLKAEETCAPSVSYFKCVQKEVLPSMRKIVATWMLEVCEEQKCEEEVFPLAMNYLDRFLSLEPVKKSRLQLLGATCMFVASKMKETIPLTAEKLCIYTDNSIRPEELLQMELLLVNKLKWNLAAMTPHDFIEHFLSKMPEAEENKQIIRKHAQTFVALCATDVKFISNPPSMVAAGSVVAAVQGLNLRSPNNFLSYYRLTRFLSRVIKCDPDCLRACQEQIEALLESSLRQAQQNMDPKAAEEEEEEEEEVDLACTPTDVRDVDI
Protocol: (§1) JEKO-1 or MV4-11 cells were seeded at 15,000 or 20,000 cells per well, respectively, in 100 μL growth media and allowed to incubate at 37° C. with 5% CO2 overnight. The following day, compounds were serially diluted from a 10 mM top dose for an 11-point 3-fold dilution curve in DMSO. Compounds were intermediately diluted 1:200 into growth media prior to diluting 1:5 on cells for final concentration 10 μM to 0.1 nM in 0.1% DMSO on cells. JEKO-1 and MV4-11 cells were treated were treated overnight, at 37° C. with 5% CO2. Cells were lysed in 100 μL/well CST lysis buffer on ice and transferred to pre-coated and blocked anti-phospho-Ser795 Rb ELISA plates for overnight incubation at 4° C. Plates were washed to remove residual, unbound cellular proteins and total Rb detection antibody added for 90 minutes at 37° C. Following wash to remove unbound total Rb antibody, the HRP tagged antibody was allowed to bind for 30 minutes at 37° C. Following wash to remove unbound HRP antibody, Glo Substrate Reagent was added and incubated protected from light for 5 to 10 minutes. Plates were read in luminescence mode and IC50 values calculated.

[3] = target: CDK6 (Homo sapiens (Human), UniProt Q00534); assay: Phospho-Serine 795 Rb ELISA assay in MV4-11 cells; format: cell-based; conditions: overnight treatment, phospho-Rb S795, read-out: CDK6 pRB S795 ELISA MV4-11 cells IC50
Sequence of CDK6 (Q00534 whole entry): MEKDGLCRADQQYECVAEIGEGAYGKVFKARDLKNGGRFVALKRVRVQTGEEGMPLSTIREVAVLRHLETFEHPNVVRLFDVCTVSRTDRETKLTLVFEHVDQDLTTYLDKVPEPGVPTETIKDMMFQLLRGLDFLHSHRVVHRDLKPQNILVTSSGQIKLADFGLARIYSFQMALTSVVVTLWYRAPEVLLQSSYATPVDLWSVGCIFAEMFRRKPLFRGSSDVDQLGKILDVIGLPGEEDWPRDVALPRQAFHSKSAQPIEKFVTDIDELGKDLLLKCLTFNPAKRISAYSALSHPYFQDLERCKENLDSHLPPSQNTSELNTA
Sequence of CDK6 (P30281 whole entry partner): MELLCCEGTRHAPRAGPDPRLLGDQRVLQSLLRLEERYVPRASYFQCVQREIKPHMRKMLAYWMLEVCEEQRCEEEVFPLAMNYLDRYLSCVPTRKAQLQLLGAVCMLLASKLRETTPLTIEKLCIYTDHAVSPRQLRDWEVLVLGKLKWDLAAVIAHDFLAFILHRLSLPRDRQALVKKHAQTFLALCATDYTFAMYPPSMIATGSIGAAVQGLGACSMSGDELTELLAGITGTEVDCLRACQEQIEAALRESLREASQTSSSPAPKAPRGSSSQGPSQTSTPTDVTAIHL
Protocol: as §1

[4] = target: CDK6/Cyclin D3 (Homo sapiens (Human), UniProt Q00534); assay: CDK6/Cyclin D3 mobility shift assay; format: biochemical; conditions: activated CDK6/Cyclin D3, 3.5 mM ATP, Morrison fit; read-out: CDK6_D3 Ki
Sequence of CDK6/Cyclin D3 (Q00534 whole entry): as the sequence (Q00534 whole entry) above
Sequence of CDK6/Cyclin D3 (P30281 whole entry partner): as the sequence (P30281 whole entry partner) above

Sequence of CDK4/Cyclin D1 (P11802 whole entry): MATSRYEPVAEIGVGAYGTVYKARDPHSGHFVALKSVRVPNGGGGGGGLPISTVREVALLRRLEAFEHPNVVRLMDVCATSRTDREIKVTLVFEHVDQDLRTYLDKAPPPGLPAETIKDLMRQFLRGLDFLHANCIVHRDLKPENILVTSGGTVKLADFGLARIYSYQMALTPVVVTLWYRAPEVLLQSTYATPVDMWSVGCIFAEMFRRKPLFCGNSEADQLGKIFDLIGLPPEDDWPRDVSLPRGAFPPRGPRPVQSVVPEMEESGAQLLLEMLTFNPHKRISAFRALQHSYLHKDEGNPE
Sequence of CDK4/Cyclin D1 (P24385 whole entry partner): as the sequence (P24385 whole entry partner) above

Structure (SMILES)	Ki [1]	IC50 [2]	IC50 [3]	Ki [4]
Cc1nc2cc(F)c(-c3ccnc(N[C@@H]4CCN(S(C)(=O)=O)C[C@H]4O)n3)cc2n1C(C)C [Example A05]	3.3 nM	225 nM	541 nM	50.8 nM
CC(C)(CN)n1cnc2c(F)cc(-c3nc(N[C@@H]4CCOC[C@H]4O)ncc3Cl)cc21 [Example A51, 3-({4-[1-(1-amino-2-methylpropan-2-yl)-4-fluoro-1H-benzimidazol-6-yl]-5-chloropyrimidin-2-yl}amino)-1,5-anhydro-2,3-dideoxy-D-threo-pentitol]	2 nM	245 nM	1530 nM	55.7 nM
Cc1nc2c(F)cc(-c3nc(N[C@@H]4CCN(S(C)(=O)=O)C[C@H]4O)ncc3Cl)cc2n1CC(C)N (stereo partly drawn) [Example A40, (3R,4R)-4-({4-[1-(2-aminopropyl)-4-fluoro-2-methyl-1H-benzimidazol-6-yl]-5-chloropyrimidin-2-yl}amino)-1-(methanesulfonyl)piperidin-3-ol]	0.3 nM	85.5 nM	346 nM	3.5 nM
Cc1nc2ccc(-c3nc(N[C@@H]4CCN(S(C)(=O)=O)C[C@H]4O)ncc3F)cc2n1C(C)(C)C [Example A78, (3R,4R)-4-{[4-(1-tert-butyl-2-methyl-1H-benzimidazol-6-yl)-5-fluoropyrimidin-2-yl]amino}-1-(methanesulfonyl)piperidin-3-ol]	0.1 nM	26.4 nM	73.9 nM	1.8 nM
CC1(C)CCc2nc3c(F)cc(-c4nc(N[C@@H]5CCN(S(C)(=O)=O)C[C@H]5O)ncc4Cl)cc3n21 [Example A09]	0.1 nM	16.8 nM	57.6 nM	1.4 nM
CC(C)n1c(C2CCO2)nc2c(F)cc(-c3nc(N[C@@H]4CCN(S(C)(=O)=O)C[C@H]4O)ncc3Cl)cc21 (single isomer, unassigned) [Example A31]	0.5 nM	23.5 nM	87 nM	7.1 nM

Now from value to molecule:

Ki [1]	IC50 [2]	IC50 [3]	Ki [4]	Structure (SMILES)
1.2 nM	455 nM	455 nM	19.3 nM	CNCC(=O)N1CC[C@@H](Nc2ncc(Cl)c(-c3cc(F)c4ncn(C(C)(C)C)c4c3)n2)[C@H](O)C1 [Example F25, 1-[(3R,4R)-4-{[4-(1-tert-butyl-4-fluoro-1H-benzimidazol-6-yl)-5-chloropyrimidin-2-yl]amino}-3-hydroxypiperidin-1-yl]-2-(methylamino)ethan-1-one]
1.1 nM	79.6 nM	343 nM	35.6 nM	CC(C)n1c(CN2CC(F)C2)nc2c(F)cc(-c3nc(N[C@@H]4CCOC[C@H]4O)ncc3Cl)cc21 [Example H06, 1,5-anhydro-3-[(5-chloro-4-{4-fluoro-2-[(3-fluoroazetidin-1-yl)methyl]-1-(propan-2-yl)-1H-benzimidazol-6-yl}pyrimidin-2-yl)amino]-2,3-dideoxy-D-threo-pentitol]
2.2 nM	191 nM	745 nM	22.3 nM	CC(C)n1cnc2c(F)cc(-c3nc(N[C@@H]4CCN(C(=O)C5(N)CC5)C[C@H]4O)ncc3Cl)cc21 [Example F28, (1-aminocyclopropyl)[(3R,4R)-4-({5-chloro-4-[4-fluoro-1-(propan-2-yl)-1H-benzimidazol-6-yl]pyrimidin-2-yl}amino)-3-hydroxypiperidin-1-yl]methanone]
0.1 nM	143 nM	182 nM	4.6 nM	CC(C)(C)n1cnc2c(F)cc(-c3nc(N[C@@H]4CCN(C(=O)C5(F)CNC5)C[C@H]4O)ncc3Cl)cc21 [Example F26, [(3R,4R)-4-{[4-(1-tert-butyl-4-fluoro-1H-benzimidazol-6-yl)-5-chloropyrimidin-2-yl]amino}-3-hydroxypiperidin-1-yl](3-fluoroazetidin-3-yl)methanone]
